Source: patent US8846627B2, “Method for treatment of malaria” (The Second Military Medical University, priority 2009, dated 2014)

What was measured:
[1] = system: chloroquine-resistant (W2) strain of P. falciparum; experiment: In vitro anti-malarial activity assay (plasmodial LDH activity), W2 clone; format: cell-based; conditions: Plasmodium falciparum, W2; 72 h incubation, LDH readout; read-out: P. falciparum (W2 Clone) IC50
Method: (§1) In vitro anti-malarial activity of the representative compounds was determined against chloroquine sensitive (D6) and chloroquine-resistant (W2) strains of P. falciparum.
(§2) The anti-malarial activity was determined by measuring plasmodial LDH activity as described earlier (Jain, M.; Khan, S. I.; Tekwani, B. L.; Jacob, M. R.; Singh, S.; Singh, P. P.; Jain, R. Synthesis, anti-malarial, antileishmanial, and antimicrobial activities of some 8-quinolinamine analogues. Bioorg. Med. Chem. 2005, 13, 4458-4466). A suspension of red blood cells infected with D6 or W2 strains of P. falciparum (200 with 2% parasitemia and 2% hematocrit in RPMI 1640 medium supplemented with 10% human serum and 60 µg/mL Amikacin) was added to the wells of a 96-well plate containing 10 μL of serially diluted test samples. The plate was flushed with a gas mixture of 90% N2, 5% O2, and 5% CO2 and incubated at 37° C. for 72 h in a modular incubation chamber (Billups-Rothenberg, Calif.). Parasitic LDH activity was determined by using Malstat™ reagent (Flow Inc., Portland, Oreg.) according to the procedure of Makler and Hinrichs (M. T. Makler and D. J. Hinrichs, Measurement of the lactate dehydrogenase activity of Plasmodium falciparum as an assessment of parasitemia. J. Am. J. Trop. Med. Hyg. 1993, 48(2):205-210). Briefly, 20 μl, of the incubation mixture was mixed with 100 μL of the Malstat™ reagent and incubated at room temperature for 30 min Twenty microliters of a 1:1 mixture of NBT/PES (Sigma, St. Louis, Mo.) was then added and the plate was further incubated in the dark for 1 h. The reaction was then stopped by the addition of 100 μL of a 5% acetic acid solution. The plate was read at 650 nm. Artemisinin and chloroquine were included in each assay as the drug controls. IC50 values were computed from the dose-response curves. To determine the selectivity index of anti-malarial activity of compounds, their cytotoxicity in vitro to mammalian cells was also determined. The assay was performed in 96-well tissue culture-treated plates as described earlier (J. Mustafa, S. I. Khan, G. Ma, L. A. Walker and I. A. Khan, Synthesis and Anticancer Activities of Fatty Acid Analogs of Podophyllotoxin. Lipids. 2004, 39(2):167-172). Vero cells (monkey kidney fibroblasts) were seeded to the wells of 96-well plate at a density of 25,000 cells/well and incubated for 24 h. Samples at different concentrations were added and plates were again incubated for 48 h. The number of viable cells was determined by Neutral Red assay. IC50 values were obtained from dose-response curves. Doxorubicin was used as a positive control.

[2] = system: chloroquine sensitive (D6) strain of P. falciparum; experiment: In vitro anti-malarial activity assay (plasmodial LDH activity), D6 clone; format: cell-based; conditions: Plasmodium falciparum, D6; 72 h incubation, LDH readout; read-out: P. falciparum (D6 Clone) IC50
Method: as §1, §2

[3] = system: Plasmodium berghei (chloroquine sensitive strain); experiment: In vivo anti-malarial activity, 4-day suppressive test in infected mice; conditions: Swiss albino mice; for Day 4 % Suppression / Day 5 % Suppression / Day 6 % Suppression: intragastric
Method: Tests were performed in a 4-day suppressive standard test using the methods of David, Thurston and Peters (David, A. F., Philip, J. R., Simon, L. C., Reto B., and Solomon N. Antimalarial drug discovery: Efficacy models for compound screening. Nature Reviews. 2004; 3: 509-520). The plasmodium species, that is most widely employed in rodent malaria parasite-Plasmodium berghei (chloroquine sensitive strain), was used to infect Swiss albino mice for a fourday suppressive test. The P. berghei was subsequently maintained in the laboratory by serial blood passage from mouse to mouse. For the study, a donor mouse with a rising parasitemia of 20% was sacrificed and its blood was collected in a slightly heparinized syringe from the auxiliary vessels. The blood was diluted with Trisodium Citrate (TC) medium so that each 0.2 ml contained approximately 107 infected red cells. Each animal received inoculums of about […], which is expected to produce a steadily rising infection in mice.
Male Swiss albino mice were used. The mice were allowed to acclimatize to the laboratory environment under a controlled temperature of 20° C. and at optimum humidity for at least three days before being subjected to the experiments. All of the mice were divided into groups of six, and infected with malaria parasites.
The infection of the recipient mice was initiated by needle passage of the above mentioned parasite preparation, from the donor to healthy test animals via an intraperitoneal route. Therefore, P. berghei infected red blood cells were intraperitoneally injected into the mice from the blood diluted with TC medium so that each 0.2 ml had approximately 106-107 infected red cells (parasite per kg of body weight). Each mouse was infected with single inoculums of 0.2 ml blood.
The 4-day procedures were started on Mondays while blood smears for parasitemia were collected on Fridays. The infected mice were weighed, randomly divided into treatment, vehicle and standard drug groups. […] The compounds were administered through intra gastric route using the stomach tube to ensure the safe ingestion of the compounds and the vehicle.
Thin smears of blood films were obtained from the peripheral blood on the tail from each mouse on day four after infection. The smears were placed on microscopic slides, fixed with methanol and stained with Gemsa at pH 7.2, for parasitemia. […] The number of parasitized erythrocytes in each of the 10-50 such fields were counted three times and the average was calculated to give the Parasitemia of each individual animal. Percentage of suppression was calculated by using the following formula. % Suppression=(Parasitemia in negative control−Parasitemia in study group)/Parasitemia in negative control

O=C(/C=C/c1ccc(O)cc1)OC[C@H]1O[C@@H](Oc2c(-c3ccc(O)cc3)oc3cc(O)cc(O)c3c2=O)[C@H](O)[C@@H](O)[C@@H]1O [Tiliroside]
IC50 [1]: 106 µM
IC50 [2]: 123 µM
Day 4 % Suppression ([3]; 10 mg/kg daily for 4 days): 39.1%
Day 5 % Suppression ([3]; 10 mg/kg daily for 4 days): 51.5%
Day 6 % Suppression ([3]; 10 mg/kg daily for 4 days): 35.1%
Day 4 % Suppression ([3]; 50 mg/kg daily for 4 days): 56.5%
Day 5 % Suppression ([3]; 50 mg/kg daily for 4 days): 64.0%
Day 6 % Suppression ([3]; 50 mg/kg daily for 4 days): 54.0%
Day 4 % Suppression ([3]; 100 mg/kg daily for 4 days): 34.7%
Day 5 % Suppression ([3]; 100 mg/kg daily for 4 days): 39.3%
Day 6 % Suppression ([3]; 100 mg/kg daily for 4 days): 21.6%
Day 4 % Suppression ([3]; 200 mg/kg daily for 4 days): 21.7%
Day 5 % Suppression ([3]; 200 mg/kg daily for 4 days): 30.3%
Day 6 % Suppression ([3]; 200 mg/kg daily for 4 days): 18.9%
Day 5 % Suppression ([3]; 400 mg/kg daily for 4 days): 9.0%
maximum suppression ratio ([3]; maximum over doses and days): 60%
